Laboratory results: patent US5534554A, “Sucrose ester-C20 to C28 alcohol formulations” (priority 1994, dated 1996)
Entries after “also recorded” stand apart in the source; their conditions may differ.

What was measured:
[1] = system: Vero cells; assay: Cellular uptake and distribution of radiolabeled n-docosanol in Vero cells
[2] = system: Friend Virus; assay: Replication of Friend Virus in vitro in primary embryo fibroblast cultures; format: cell-based, murine
[3] = system: acyclovir-resistant HSV-2; assay: Plaque inhibition, acyclovir-resistant HSV-2 in Vero cells; format: cell-based; details: FIG. 7, Panel B
[4] = system: Cytomegalovirus; assay: Antiviral activity against human cytomegalovirus; format: cell-based, human virus; details: Table 6, human viruses
[5] = system: Herpes simplex virus type 2; assay: Inhibition of HSV type 2 infectivity in simian and human cell lines; format: cell-based, HSV-2
[6] = system: LP-BM5 Virus; assay: Antiviral activity against LP-BM5 virus; format: cell-based; details: Table 6, murine viruses
[7] = system: Respiratory Syncytial Virus; assay: Antiviral activity against respiratory syncytial virus; format: cell-based; details: Table 6, human viruses
[8] = system: wild-type HSV-2; assay: Plaque inhibition, wild-type HSV-2 in Vero cells; format: cell-based; details: FIG. 7, Panel A
[9] = system: Vero or MDBK cells; assay: Uptake and metabolism in Vero versus MDBK cells; format: in vitro ADME, bovine (MDBK)
Protocol: FIG. 11 depicts data showing that n-[^14 C]-docosanol is metabolized more by Vero cells than by MDBK cells. Vero or MDBK cells were plated as described in the specification. n-[^14 C]-Docosanol was added to 6 mM (0.24 mM Tetronic 908) and the cultures were incubated 72 hours at 37° C./CO2. Cells were extracted and analyzed on TLC with hexane:diethyl ether:acetic acid (20:30:1; v:v:v) as the developing solvent. With this solvent system the polar phosphatides remain at the origin. The position of migration of n-docosanol is indicated. Duplicate plates were treated with an identical suspension lacking the radioactive label, and the numbers of cells in these duplicate plates were determined by counting cells excluding trypan blue with a hemocytometer.
When we compared total cellular uptake and relative metabolism, the results were strikingly clear. First, both the total amounts of n-docosanol uptake and the relative amounts of metabolic conversion were 3-4 times higher in Vero than in MDBK cells. […] Nonetheless, of the counts that are metabolized in two cells lines, the relative amounts in the major classes of phosphatides that are formed, phosphatidylcholine and phosphatidylethanolamine, are not different in the two cell lines.

[10] = system: HSV; assay: Inhibition of HSV replication, Tetronic versus Pluronic suspensions; format: cell-based
[11] = system: HSV-2; format: cell-based
[12] = system: HSV; assay: Secondary plaque assay of infectious virions; format: cell-based; details: secondary plaque assay cultures
Text: Finally, the replication of infectious virions as measured in secondary plaque assay cultures is markedly diminished by 99% or more in n-docosanol-treated cells.

[13] = system: Vero cells; assay: Metabolism of n-[14C]-docosanol in Vero cells (TLC); details: sodium azide and 2-deoxyglucose
[14] = system: poliovirus; format: cell-based; details: nonenveloped virus
[15] = system: HSV; assay: Viral migration to the nucleus (HSV antigens by ELISA, ICP-4 by immunofluorescence); format: cell-based
Text: (§1) The collective implications of the results of the studies are that the compound appears to interfere with one or more of the common pathways of viral entry into the cell and migration to the nucleus of infected target cells.
Thus, the amounts of both HSV core and envelope protein antigens detectable by ELISA, as well as the numbers of infected cells expressing the intranuclear HSV-specific immediate-early protein, ICP-4, by immunofluorescence, are reduced by more than 80%. Finally, the replication of infectious virions as measured in secondary plaque assay cultures is markedly diminished by 99% or more in n-docosanol-treated cells.

[16] = system: prostate gland; details: oral, U.S. Pat. No. 4,186,211; cited from earlier work
[17] = system: Vero cells
[18] = system: HSV-specific receptors; assay: Binding of herpes virus to HSV-specific receptors on target cells; format: cell-based
Text: as §1

[19] = system: virus; assay: Direct virucidal activity; details: n-docosanol suspension
Text: as §1

[20] = system: HSV-1; assay: Inhibition of HSV-1-induced cutaneous lesions (vesicles) in hairless guinea pigs; format: in vivo; details: continued treatment
Text: Burroughs Wellcome Co., Research Triangle Park, N.C.; the current agent of choice for treatment of HSV infections which inhibits activity of viral DNA polymerase) in inhibiting HSV-1-induced cutaneous lesions in hairless guinea pigs. […] To confirm in an experimental animal model the efficacy of n-docosanol cream on HSV-induced lesions, and to compare its activity to that of […], hairless guinea pigs were inoculated with 1×10^6 PFU of HSV-1, and then treated with either n-docosanol-containing or control cream, or […] ointment. The n-docosanol creams were constructed as described. The control cream was constructed in a similar manner except stearic acid was substituted for n-docosanol. Treatment was started either 2 or 48 hours after virus inoculation. The sites were evaluated for vesicle formation, defined as a pus-filled blister, at the indicated time points.

[21] = system: Cytomegalovirus; assay: Antiviral activity against murine cytomegalovirus; format: cell-based, murine virus; details: Table 6, murine viruses

CCCCCCCCCCCCCCCCCCCCCCO [n-docosanol]
radioactivity in the soluble cytoplasmic fraction ([1]; after 12 hours of exposure): the balance of radioactivity
actual bioactive dose relative to the dose shown in FIGS. 7 and 9 ([1]; cultures, from uptake studies): 1/1000
reduction of uptake of n-docosanol by energy poisons ([1]; sodium azide and 2-deoxyglucose, Vero cells): 90%
susceptibility to antiviral activity: Friend Leukemia Virus ([2]; Table 6, murine viruses): susceptible
activity against replication of Friend Virus in vitro ([2]; primary embryo fibroblast cultures): very potent activity
inhibition of acyclovir-resistant HSV-2 mutant [3]: very clearly susceptible
susceptibility to antiviral activity: Cytomegalovirus [4]: susceptible
susceptibility to antiviral activity: Herpes Simplex - 2 ([5]; Table 6): susceptible
inhibitory activity in vitro ([5]; suspension in Pluronic F-68): excellent inhibitory activity
susceptibility to antiviral activity: LP-BM5 Virus [6]: susceptible
susceptibility to antiviral activity: Respiratory Syncytial Virus [7]: susceptible
inhibition of plaque formation [8]: inhibit plaque formation by wild type HSV-2 equally
relative metabolic conversion, Vero relative to MDBK cells [9]: 3-4 times
total uptake, Vero relative to MDBK cells [9]: 3-4 times
amount of phosphatide metabolite, Vero relative to MDBK cells ([9]; after 72 hours, FIG. 11): ~4 fold
relative amounts of phosphatidylcholine and phosphatidylethanolamine in the two cell lines ([9]; of counts metabolized): not different
ED50 in Pluronic relative to Tetronic ([10]; suspended in Pluronic F-68): approximately 3 times
EC50 ([10]; suspended in Tetronic 908, read-out: ED50 for inhibition of HSV replication): 5 to 10 mM
internalization of HSV complete by 20 minutes ([11]; after shift to 37° C.): less than 40%
time to completion of internalization ([11]; after shift to 37° C.): more than 1 hour
persistence of bound HSV virions on the cell surface ([11]; in the presence of n-docosanol): remain on the cell surface for a prolonged time period
decrease of replication of infectious virions [12]: ≥ 99%
reduction of metabolic conversion into polar metabolites by energy poisons [13]: 80%
activity against poliovirus [14]: no detectable activity
viral migration to the cell nucleus [15]: significantly inhibited; also recorded: substantially blocked
reduction of HSV core protein antigen ([15]; ELISA): more than 80%
reduction of HSV envelope protein antigen ([15]; ELISA): more than 80%
reduction of number of infected cells expressing ICP-4 ([15]; immunofluorescence): more than 80%
treatment of enlargement of the prostate gland [16]: therapeutically effective
fraction of total n-docosanol cell-associated [17]: less than 1%
molecules per cell [17]: ~8×10^9 molecules per cell
radioactive compound in cell membranes [17]: 75%
radioactive compound in nuclear fractions [17]: less than 1%
reversibility of cell association [17]: irreversible
time of peak uptake per cell [17]: 6 to 12 h
total uptake, Tetronic versus Pluronic suspension [17]: equivalent
effect on viral binding to receptors [18]: does not interfere with binding of herpes virus; also recorded: no effect
direct virucidal activity [19]: no direct virucidal activity
vesicle number at the 72 hour time point [20]: many fewer vesicles
susceptibility to antiviral activity: Cytomegalovirus [21]: susceptible
